Columns and labels:
[1] = Example 14 toxicology, daily oral gavage for 5 consecutive days; assay type: in vivo; conditions: mice
Source text: The purpose of this study was to evaluate the toxicity of indole and indole-related Test Articles when administered daily via oral gavage to mice for 5 consecutive days.
Assessment of toxicity was based on mortality; clinical signs, body weight, food consumption, clinical pathology, and macroscopic pathology data.

[2] = target: T1, Porcine group 1B phospholipase A2 (pps PLA2) (Sus scrofa, UniProt P00592); assay: Example 8 fluorimetric PLA2 inhibition assay (PPyrPM), porcine enzyme; assay type: biochemical
T1 construct: purchased
T1 sequence (P00592 23-146): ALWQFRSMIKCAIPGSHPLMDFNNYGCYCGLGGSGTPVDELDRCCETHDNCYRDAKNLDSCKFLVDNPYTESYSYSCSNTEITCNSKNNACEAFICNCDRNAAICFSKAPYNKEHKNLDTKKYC
Source text: In this example, a fluorimetric assay procedure was used to evaluate the indole and indole-related compounds of the invention as inhibitors of group 1B phospholipase A2 (PLA2) from human, mouse and porcine. A description of this assay is found in articles: Leslie, C C and Gelb, M H (2004) Methods in Molecular Biology “Assaying phospholipase A2 activity”, 284:229-242; Singer, A G, et al. (2002) Journal of Biological Chemistry “Interfacial kinetic and binding properties of the complete set of human and mouse groups I, II, V, X, and XII secreted phospholipases A2”, 277:48535-48549, which are incorporated herein as references.
In general, this assay used a phosphatidylmethanol substrate with a pyrene fluorophore on the terminal end of the sn-2 fatty acyl chain. […] The effect of a given inhibitor and inhibitor concentration on human, mouse and porcine phospholipase was determined. […]
The following procedure was performed to evaluate the inhibitory potency of the evaluated compounds. • 1. […] The fluorescence was read using an excitation of 342 nm and an emission of 395 nm.
Evaluated compounds were tested in duplicate and their values were averaged to plot the inhibition curve and calculate the IC50. […] The IC50 was calculated using the BioDataFit 1.02 (Four Parameter Model) software package. […]

[3] = Example 9 mouse pharmacokinetic study; assay type: in vivo; conditions: serum, PO 30 mg/kg vs IV 3 mg/kg, male CD-1 mice
Procedure: The plasma exposure of male CD-1 mice to indole and indole-related test articles (TAs) following intravenous (IV, 3 mg/kg) and oral (PO, 30 mg/kg) routes of administration was measured. This model was used to investigate the bioavailability of indole and indole-related TAs in mouse. Mice were selected for the study since they are an accepted species frequently used in pre-clinical evaluation of drugs intended for human use.
Male CD-1 mice (7-8 weeks old) were obtained from Charles River Laboratories (Wilmington, Mass.). Two groups (N=18 and 27) of male CD-1 mice were used for the study. Upon arrival, the animals were placed on Rodent Diet 5001 (Purina Mills, Inc., St. Louis, Mo.). […]
All animals were weighed on study day (1) and the body weights were recorded and used for dose calculation. […] Clinical observations were recorded as needed.
Analysis of serum samples was performed by LC/MS/MS (Waters Quattro Premier, Milford, Mass.). Areas under curves (AUC) were calculated using Graphpad Prism Version 4. Bioavailability was calculated using the following equation: […]
where AUC0-t=total area under curve at the last measurable time point Based on the serum levels analyzed by LC/MS/MS, the calculated bioavailability of indole and indole-related TAs in CD-1 mice is summarized in Table 4.3.

In the case of `Cc1c(C(=O)C(N)=O)c2c(OCC(=O)NS(=O)(=O)CCCC(=O)O)cccc2n1Cc1ccccc1` [ILY-IV-40, 4-[2-(3-Aminooxalyl-1-benzyl-2-methyl-1H-indol-4-yloxy)-acetylsulfamoyl]-butyric acid], the “clinical pathology differences between vehicle control group and treated groups attributable to test article” value [1] is reported as “no differences”, the IC50 [2] is reported as 1.01 µM and the bioavailability [3] is reported as 0.5%.

Reference: US20090318492A1, “INDOLE COMPOUNDS HAVING C4-ACIDIC SUBSTITUENTS AND USE THEREOF AS PHOSPHOLIPASE-A2 INHIBITORS” (priority 2005, published 2009)
